Measured values as given in PubChem BioAssay (NCI).
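Where inhibition never reached the appropriate level, the endpoint shown equals the highest concentration tested. Otherwise, values were interpolated linearly from a five-concentration, 48-hour dose response in 96-well plates. The concentration for 50% growth inhibition is given as GI50. TGI: concentration producing complete growth inhibition.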

What was measured:
Test in all cases: NCI anticancer screen, dose series, 48 h
786-0 renal = tested on: 786-0 renal
A498 renal = tested on: A498 renal
A549 NSCLC = tested on: A549 NSCLC
ACHN renal = tested on: ACHN renal
BT-549 breast = tested on: BT-549 breast
CAKI-1 renal = tested on: CAKI-1 renal
CCRF-CEM leukemia = tested on: CCRF-CEM leukemia
COLO 205 colon = tested on: COLO 205 colon
DU-145 prostate = tested on: DU-145 prostate
EKVX NSCLC = tested on: EKVX NSCLC
HCC-2998 colon = tested on: HCC-2998 colon
HCT-116 colon = tested on: HCT-116 colon
HCT-15 colon = tested on: HCT-15 colon
HL-60(TB) leukemia = tested on: HL-60(TB) leukemia
HOP-62 NSCLC = tested on: HOP-62 NSCLC
HOP-92 NSCLC = tested on: HOP-92 NSCLC
HS 578T breast = tested on: HS 578T breast
HT29 colon = tested on: HT29 colon
IGROV1 ovarian = tested on: IGROV1 ovarian
KM12 colon = tested on: KM12 colon
LOX IMVI melanoma = tested on: LOX IMVI melanoma
M14 melanoma = tested on: M14 melanoma
MALME-3M melanoma = tested on: MALME-3M melanoma
MCF7 breast = tested on: MCF7 breast
MDA-MB-231 breast = tested on: MDA-MB-231 breast
MDA-MB-435 = tested on: MDA-MB-435
MDA-MB-468 breast = tested on: MDA-MB-468 breast
MOLT-4 leukemia = tested on: MOLT-4 leukemia
NCI-H226 lung = tested on: NCI-H226 lung
NCI-H23 lung = tested on: NCI-H23 lung
NCI-H460 lung = tested on: NCI-H460 lung
NCI-H522 lung = tested on: NCI-H522 lung
NCI/ADR-RES ovarian = tested on: NCI/ADR-RES ovarian
OVCAR-3 ovarian = tested on: OVCAR-3 ovarian
OVCAR-4 ovarian = tested on: OVCAR-4 ovarian
OVCAR-5 ovarian = tested on: OVCAR-5 ovarian
OVCAR-8 ovarian = tested on: OVCAR-8 ovarian
PC-3 prostate = tested on: PC-3 prostate
RPMI-8226 leukemia = tested on: RPMI-8226 leukemia
RXF 393 renal = tested on: RXF 393 renal
SF-268 CNS = tested on: SF-268 CNS
SF-295 CNS = tested on: SF-295 CNS
SF-539 CNS = tested on: SF-539 CNS
SK-MEL-2 melanoma = tested on: SK-MEL-2 melanoma
SK-MEL-28 melanoma = tested on: SK-MEL-28 melanoma
SK-MEL-5 melanoma = tested on: SK-MEL-5 melanoma
SK-OV-3 ovarian = tested on: SK-OV-3 ovarian
SN12C renal = tested on: SN12C renal
SNB-19 CNS = tested on: SNB-19 CNS
SNB-75 CNS = tested on: SNB-75 CNS
SR leukemia = tested on: SR leukemia
SW-620 colon = tested on: SW-620 colon
T-47D breast = tested on: T-47D breast
TK-10 renal = tested on: TK-10 renal
U251 CNS = tested on: U251 CNS
UACC-257 melanoma = tested on: UACC-257 melanoma
UACC-62 melanoma = tested on: UACC-62 melanoma
UO-31 renal = tested on: UO-31 renal

`COc1cc2oc(-c3cccc(C(=O)Nc4ccc(Cl)cc4)c3)cc(=O)c2c(OCCNC(=O)[C@@H](N)CO)c1OC` was tested. Which GI50 (786-0 renal) did it give?
Its GI50 is 13.2 µM.

What about the TGI (786-0 renal) of the same compound?
Its TGI is 32.4 µM.

And the GI50 (A498 renal)?
The GI50 was 32.8 µM.

What about the TGI (A498 renal) of the same compound?
Its TGI is 65.7 µM.

What about the GI50 (A549 NSCLC) of the same compound?
Its GI50 is greater than 100 µM.

What about the TGI (A549 NSCLC) of the same compound?
Its TGI is greater than 100 µM.

And the GI50 (ACHN renal)?
Its GI50 is 30.6 µM.

What about the TGI (ACHN renal) of the same compound?
The TGI was greater than 100 µM.

And the GI50 (BT-549 breast)?
Its GI50 is 10.3 µM.

What about the TGI (BT-549 breast) of the same compound?
Its TGI is 25.4 µM.

And the GI50 (CAKI-1 renal)?
Its GI50 is 65.4 µM.

And the TGI (CAKI-1 renal)?
Its TGI is greater than 100 µM.

And the GI50 (CCRF-CEM leukemia)?
Its GI50 is 2.39 µM.

What about the TGI (CCRF-CEM leukemia) of the same compound?
The TGI was 5.83 µM.

And the GI50 (COLO 205 colon)?
The GI50 was 6 µM.

And the TGI (COLO 205 colon)?
Its TGI is 20.2 µM.

What about the GI50 (DU-145 prostate) of the same compound?
Its GI50 is 16 µM.

And the TGI (DU-145 prostate)?
Its TGI is 35.4 µM.

And the GI50 (EKVX NSCLC)?
The GI50 was 16.8 µM.

And the TGI (EKVX NSCLC)?
The TGI was greater than 100 µM.

And the GI50 (HCC-2998 colon)?
Its GI50 is 5.83 µM.

What about the TGI (HCC-2998 colon) of the same compound?
The TGI was 19.3 µM.

What about the GI50 (HCT-116 colon) of the same compound?
The GI50 was 4.72 µM.

What about the TGI (HCT-116 colon) of the same compound?
Its TGI is 19.5 µM.

And the GI50 (HCT-15 colon)?
Its GI50 is 19.6 µM.

And the TGI (HCT-15 colon)?
Its TGI is greater than 100 µM.

And the GI50 (HL-60(TB) leukemia)?
The GI50 was 8.2 µM.

And the TGI (HL-60(TB) leukemia)?
Its TGI is 30.4 µM.

And the GI50 (HOP-62 NSCLC)?
Its GI50 is 7.74 µM.

What about the TGI (HOP-62 NSCLC) of the same compound?
The TGI was 29 µM.

And the GI50 (HOP-92 NSCLC)?
Its GI50 is 2.65 µM.

What about the TGI (HOP-92 NSCLC) of the same compound?
Its TGI is 12.7 µM.

And the GI50 (HS 578T breast)?
The GI50 was 4.32 µM.

What about the TGI (HS 578T breast) of the same compound?
The TGI was 18.2 µM.

What about the GI50 (HT29 colon) of the same compound?
Its GI50 is 6.44 µM.

And the TGI (HT29 colon)?
The TGI was 26.6 µM.

And the GI50 (IGROV1 ovarian)?
Its GI50 is 7.15 µM.

And the TGI (IGROV1 ovarian)?
The TGI was 23.9 µM.

And the GI50 (KM12 colon)?
Its GI50 is 15.3 µM.

What about the TGI (KM12 colon) of the same compound?
Its TGI is 29.1 µM.

What about the GI50 (LOX IMVI melanoma) of the same compound?
Its GI50 is 1.79 µM.

What about the TGI (LOX IMVI melanoma) of the same compound?
The TGI was 3.5 µM.

What about the GI50 (M14 melanoma) of the same compound?
The GI50 was 1.84 µM.

What about the TGI (M14 melanoma) of the same compound?
The TGI was 3.72 µM.

And the GI50 (MALME-3M melanoma)?
Its GI50 is 2.47 µM.

And the TGI (MALME-3M melanoma)?
Its TGI is 6.92 µM.

And the GI50 (MCF7 breast)?
Its GI50 is 3.53 µM.

What about the TGI (MCF7 breast) of the same compound?
The TGI was 13.3 µM.

What about the GI50 (MDA-MB-231 breast) of the same compound?
The GI50 was 2.87 µM.

And the TGI (MDA-MB-231 breast)?
Its TGI is 9.37 µM.

What about the GI50 (MDA-MB-435) of the same compound?
Its GI50 is 4.59 µM.

And the TGI (MDA-MB-435)?
Its TGI is 17.8 µM.

What about the GI50 (MDA-MB-468 breast) of the same compound?
The GI50 was 1.51 µM.

And the TGI (MDA-MB-468 breast)?
Its TGI is 3.63 µM.

What about the GI50 (MOLT-4 leukemia) of the same compound?
Its GI50 is 2.4 µM.

What about the TGI (MOLT-4 leukemia) of the same compound?
The TGI was 5.18 µM.

What about the GI50 (NCI-H226 lung) of the same compound?
The GI50 was 12.8 µM.

What about the TGI (NCI-H226 lung) of the same compound?
The TGI was 53 µM.

And the GI50 (NCI-H23 lung)?
Its GI50 is 12.6 µM.

What about the TGI (NCI-H23 lung) of the same compound?
The TGI was 30.2 µM.

And the GI50 (NCI-H460 lung)?
The GI50 was 8.48 µM.

What about the TGI (NCI-H460 lung) of the same compound?
The TGI was 22.1 µM.

What about the GI50 (NCI-H522 lung) of the same compound?
Its GI50 is 3.61 µM.

What about the TGI (NCI-H522 lung) of the same compound?
The TGI was 18 µM.

And the GI50 (NCI/ADR-RES ovarian)?
Its GI50 is greater than 100 µM.

What about the TGI (NCI/ADR-RES ovarian) of the same compound?
Its TGI is greater than 100 µM.

What about the GI50 (OVCAR-3 ovarian) of the same compound?
The GI50 was 13.4 µM.

And the TGI (OVCAR-3 ovarian)?
The TGI was 26.9 µM.

What about the GI50 (OVCAR-4 ovarian) of the same compound?
The GI50 was 12.8 µM.

And the TGI (OVCAR-4 ovarian)?
The TGI was 30.3 µM.

What about the GI50 (OVCAR-5 ovarian) of the same compound?
The GI50 was 9.96 µM.

And the TGI (OVCAR-5 ovarian)?
Its TGI is 44.3 µM.

What about the GI50 (OVCAR-8 ovarian) of the same compound?
The GI50 was 10.1 µM.

What about the TGI (OVCAR-8 ovarian) of the same compound?
The TGI was 21.7 µM.

And the GI50 (PC-3 prostate)?
The GI50 was 10.8 µM.

And the TGI (PC-3 prostate)?
Its TGI is 35.6 µM.

And the GI50 (RPMI-8226 leukemia)?
The GI50 was 3.36 µM.

And the TGI (RPMI-8226 leukemia)?
The TGI was greater than 100 µM.

What about the GI50 (RXF 393 renal) of the same compound?
The GI50 was 8.76 µM.

What about the TGI (RXF 393 renal) of the same compound?
The TGI was 67.6 µM.

And the GI50 (SF-268 CNS)?
The GI50 was 13.9 µM.

And the TGI (SF-268 CNS)?
Its TGI is 32.4 µM.

And the GI50 (SF-295 CNS)?
Its GI50 is 6.84 µM.

What about the TGI (SF-295 CNS) of the same compound?
Its TGI is 25.1 µM.

And the GI50 (SF-539 CNS)?
Its GI50 is 11.3 µM.

And the TGI (SF-539 CNS)?
The TGI was 24.5 µM.

And the GI50 (SK-MEL-2 melanoma)?
Its GI50 is 2.1 µM.

And the TGI (SK-MEL-2 melanoma)?
The TGI was 5.03 µM.

And the GI50 (SK-MEL-28 melanoma)?
Its GI50 is 1.77 µM.

What about the TGI (SK-MEL-28 melanoma) of the same compound?
Its TGI is 3.46 µM.

What about the GI50 (SK-MEL-5 melanoma) of the same compound?
Its GI50 is 9.11 µM.

What about the TGI (SK-MEL-5 melanoma) of the same compound?
The TGI was 26.6 µM.

What about the GI50 (SK-OV-3 ovarian) of the same compound?
The GI50 was 14.8 µM.

And the TGI (SK-OV-3 ovarian)?
Its TGI is 38.2 µM.

And the GI50 (SN12C renal)?
Its GI50 is 6.64 µM.

And the TGI (SN12C renal)?
The TGI was 21.4 µM.

What about the GI50 (SNB-19 CNS) of the same compound?
Its GI50 is 4.94 µM.

What about the TGI (SNB-19 CNS) of the same compound?
The TGI was 18 µM.

What about the GI50 (SNB-75 CNS) of the same compound?
Its GI50 is 10.2 µM.

And the TGI (SNB-75 CNS)?
Its TGI is 24.3 µM.

What about the GI50 (SR leukemia) of the same compound?
Its GI50 is 2.66 µM.

What about the TGI (SR leukemia) of the same compound?
Its TGI is 7.75 µM.

What about the GI50 (SW-620 colon) of the same compound?
Its GI50 is 3.93 µM.

And the TGI (SW-620 colon)?
Its TGI is 14.1 µM.

And the GI50 (T-47D breast)?
Its GI50 is 4.19 µM.

What about the TGI (T-47D breast) of the same compound?
Its TGI is 21.9 µM.

What about the GI50 (TK-10 renal) of the same compound?
The GI50 was 16.9 µM.

What about the TGI (TK-10 renal) of the same compound?
The TGI was 37 µM.

And the GI50 (U251 CNS)?
Its GI50 is 2.02 µM.

What about the TGI (U251 CNS) of the same compound?
The TGI was 3.9 µM.

What about the GI50 (UACC-257 melanoma) of the same compound?
Its GI50 is 1.97 µM.

And the TGI (UACC-257 melanoma)?
The TGI was 3.74 µM.

And the GI50 (UACC-62 melanoma)?
Its GI50 is 13.5 µM.

And the TGI (UACC-62 melanoma)?
Its TGI is 31.6 µM.

And the GI50 (UO-31 renal)?
Its GI50 is 45.6 µM.

What about the TGI (UO-31 renal) of the same compound?
The TGI was greater than 100 µM.
